Patent US9328138B2 (priority 2011, dated 2016)
Structures can show the parent of a compound that is named as a salt.

Key:
[1] = target: HCV NS3 protease genotype 3a (3A-1) (Hepatitis C virus genotype 3a, UniProt Q81258); assay: HCV NS3 protease time-resolved fluorescence (TRF) assay, genotype 3a; type: biochemical; conditions: Ki 3a
Description: (§1) The HCV NS3 protease inhibitory activity of the present compounds may be tested using assays known in the art. One such assay is HCV NS3 protease time-resolved fluorescence (TRF) assay as described below and in International Patent Application Publication No. WO2006/102087. Other examples of such assays are described in e.g., International Patent Application Publication No. WO2005/046712. The assay is performed in a final volume of 100 μl in assay buffer containing 50 mM HEPES, pH 7.5, 150 mM NaCl, 15% glycerol, 0.15% Triton X-100, 10 mM DTT, and 0.1% PEG 8000. NS3 protease is pre-incubated with various concentrations of inhibitors in DMSO for 30 minutes. The reaction is initiated by adding the TRF peptide substrate (final concentration 100 nM). NS3 mediated hydrolysis of the substrate is quenched after 1 hour at room temperature with 100 μl of 500 mM MES, pH 5.5. Product fluorescence is detected using either a VICTOR V2 or FUSION fluorophotometer (Perkin Elmer Life and Analytical Sciences) with excitation at 340 nm and emission at 615 nm with a 400 μs delay. Testing concentrations of different enzyme forms are selected to result in a signal to background ratio (S/B) of 10-30. IC50 values are derived using a standard four-parameter fit to the data. K; values are derived from IC50 values using the following formula, IC50=Ki(1+[S]/Km), Eqn (1), where [S] is the concentration of substrate peptide in the reaction and KM is the Michaelis constant. See Gallinari et al., 1999, Biochem. 38:5620-32; Gallinari et al., 1998, J. Virol. 72:6758-69; Taliani et al., 1996, Anal. Biochem. 240:60-67.
(§2) The HCV NS3 protease inhibitory activity was measured using the protease time-resolved fluorescence (TRF) assay as described below and in International Patent Application Publication No. WO 2006/102087. The assay was performed with HCV genotype 1b (BK) NS3 modified enzyme with a R155K mutation and genotype 3a (3A-1).
(§3) The assay was performed in a final volume of 50 μl in assay buffer containing 50 mM HEPES, pH 7.5, 150 mM NaCl, 15% glycerol, 0.15% TRITON X-100, 10 mM DTT, and 0.1% PEG 8000. NS3 and NS4A protease is pre-incubated with various concentrations of inhibitors in DMSO for 10 minutes. The reaction was initiated by adding the TRF peptide substrate (final concentration 25 nM) and NS3 mediated hydrolysis of the substrate proceeds for 6 hours at room temperature. Product fluorescence is detected using an Envision plate reader (Perkin Elmer) with excitation at 340 nm and emission at 615 nm with a 400 μs delay. Testing concentrations of the enzymes were selected to result in a signal to background ratio (S/B) of 5-20. IC50 values are derived using a standard four-parameter fit to the data.
(§4) NS3 and NS4A protease is pre-incubated with various concentrations of inhibitors in DMSO for 30 minutes. The reaction is initiated by adding the TRF peptide substrate (final concentration 100 nM). NS3 mediated hydrolysis of the substrate is quenched after 1 hour at room temperature with 100 μl of 500 mM MES, pH 5.5. Product fluorescence is detected using either a VICTOR V2 or FUSION fluorophotometer (Perkin Elmer Life and Analytical Sciences) with excitation at 340 nm and emission at 615 nm with a 400 μs delay. Testing concentrations of the enzymes are selected to result in a signal to background ratio (S/B) of 8-30. IC50 values are derived using a standard four-parameter fit to the data. Ki values are derived from IC50 values using the following formula, IC50=Ki(1+[S][…]), Eqn (1), where [S] is the concentration of substrate peptide in the reaction and KM is the Michaelis constant. See Gallinari et al., 1999, Biochem. 38:5620-32; Gallinari et al., 1998, J. Virol. 72:6758-69; and Taliani et al., 1996, Anal. Biochem. 240:60-67. ND means not determined.

[2] = target: T1, HCV genotype 1b (BK) NS3 modified enzyme with a R155K mutation (Hepatitis C virus genotype 1b, UniProt P26663, R1181K); assay: HCV NS3 protease time-resolved fluorescence (TRF) assay, genotype 1b R155K; type: biochemical; conditions: Ki 1b R155K
T1 construct: HCV genotype 1b (BK) NS3 modified enzyme
Description: as §1, §2, §3, §4

[3] = first of two values printed in the cell (not explained)
[4] = second of two values printed in the cell (not explained)
[5] = genotype 1b (BK) NS3 R155K, single value

## C=C[C@@H]1CC1(NC(=O)[C@@H]1C[C@@H]2CN1C(=O)[C@H](C(C)(C)C)NC(=O)O[C@@H]1C[C@H]1CCCCCc1c(nc3ccccc3c1OC1C3CNCC1COC3)O2)C(=O)NS(=O)(=O)C1(C)CC1 (single isomer, unassigned) [Example 259, trifluoroacetate]
[1]
  Ki: 7.4 nM
[2]; [3]
  Ki: 0.03 nM
[2]; [4]
  Ki: 0.35 nM

## C=C[C@@H]1C[C@]1(NC(=O)[C@@H]1C[C@@H]2CN1C(=O)[C@H](C1CCCCC1)NC(=O)O[C@@H]1C[C@H]1CCCCCc1c(nc3ccccc3c1OC1CC3COCC(C1)N3CCOC)O2)C(=O)NS(=O)(=O)C1(C)CC1 (stereo partly drawn) [Example 289, (1aR,5S,8S,10R,22aR)-5-cyclohexyl-N-[(1R,2S)-2-ethenyl-1-{[(1-methylcyclopropyl)sulfonyl]carbamoyl}cyclopropyl]-17-{[9-(2-methoxyethyl)-3-oxa-9-azabicyclo[3.3.1]non-7-yl]oxy}-3,6-dioxo-1,1a,3,4,5,6,9,10,18,19,20,21,22,22a-tetradecahydro-8H-7,10-methanocyclopropa[18,19][1,10,3,6]dioxadiazacyclononadecino[11,12-b]quinoline-8-carboxamide]
[1]
  Ki: 3.27 nM
[2]; [3]
  Ki: 0.03 nM
[2]; [4]
  Ki: 0.197 nM

## C=C[C@@H]1C[C@]1(NC(=O)[C@@H]1C[C@@H]2CN1C(=O)[C@H](C(C)(C)C)NC(=O)O[C@@H]1C[C@H]1CCCCCc1c(nc3cc(C)ccc3c1OCCCNC1CC1)O2)C(=O)NS(=O)(=O)C1(C)CC1 [Example 145, (1aR,5S,8S,10R,22aR)-5-tert-butyl-17-[3-(cyclopropylamino)propoxy]-N-[(1R,2S)-2-ethenyl-1-{[(1-methylcyclopropyl)sulfonyl]carbamoyl}cyclopropyl]-14-methyl-3,6-dioxo-1,1a,3,4,5,6,9,10,18,19,20,21,22,22a-tetradecahydro-8H-7,10-methanocyclopropa[18,19][1,10,3,6]dioxadiazacyclononadecino[11,12-b]quinoline-8-carboxamide]
[1]
  Ki: 1.2 nM
[2]; [5]
  Ki: 0.079 nM

## C=C[C@@H]1C[C@]1(NC(=O)[C@@H]1C[C@@H]2CN1C(=O)[C@H](C1CCCCC1)NC(=O)O[C@@H]1C[C@H]1CCCCCc1c(nc3c(OC)cccc3c1OCCN1CCCCC1)O2)C(=O)NS(=O)(=O)C1(C)CC1 [Example 216, (1aR,5S,8S,10R,22aR)-5-cyclohexyl-N-[(1R,2S)-2-ethenyl-1-{[(1-methylcyclopropyl)sulfonyl]carbamoyl}cyclopropyl]-13-methoxy-3,6-dioxo-17-[2-(piperidin-1-yl)ethoxy]-1,1a,3,4,5,6,9,10,18,19,20,21,22,22a-tetradecahydro-8H-7,10-methanocyclopropa[18,19][1,10,3,6] dioxadiazacyclononadecino[11,12-b]quinoline-8-carboxamide]
[1]
  Ki: 6.4 nM
[2]; [5]
  Ki: 0.24 nM

## C=C[C@@H]1C[C@]1(NC(=O)[C@@H]1C[C@@H]2CN1C(=O)[C@H](C(C)(C)C)NC(=O)O[C@@H]1CCC[C@H]1CC/C=C/Cc1c(nc3ccccc3c1OCCN1CCCCC1)O2)C(=O)NS(=O)(=O)C1CC1 [Example 75, (3aR,7S,10S,12R,21E,24aS)-7-tert-butyl-N-{(1R,2S)-1-[(cyclopropylsulfonyl)carbamoyl]-2-ethenylcyclopropyl}-5,8-dioxo-19-[2-(piperidin-1-yl)ethoxy]-1,2,3,3a,5,6,7,8,11,12,20,23,24,24a-tetradecahydro-10H-9,12-methanocyclopenta[18,19][1,10,3,6]dioxadiazacyclononadecino[11,12-b]quinoline-10-carboxamide]
[1]
  Ki: 2.3 nM
[2]; [5]
  Ki: 0.28 nM

## C=C[C@@H]1C[C@]1(NC(=O)[C@@H]1C[C@@H]2CN1C(=O)[C@H](C(C)(C)C)NC(=O)O[C@@H]1CCC[C@H]1CC/C=C/Cc1c(nc3ccccc3c1OCCn1cccc1)O2)C(=O)NS(=O)(=O)C1CC1 [Example 52, (3aR,7S,10S,12R,21E,24aS)-7-tert-butyl-N-{(1R,2S)-1-[(cyclopropylsulfonyl)carbamoyl]-2-ethenylcyclopropyl}-5,8-dioxo-19-[2-(1H-pyrrol-1-yl)ethoxy]-1,2,3,3a,5,6,7,8,11,12,20, 23,24,24a-tetradeca hydro-10H-9,12-methano cyclopenta[18,19][1,10,3,6]dioxadiazacyclo nonadecino[11,12-b]quinoline-10-carboxamide]
[1]
  Ki: 10 nM
[2]; [5]
  Ki: 1.1 nM

## C=C[C@@H]1C[C@]1(NC(=O)[C@@H]1C[C@@H]2CN1C(=O)[C@H](C1CCCCC1)NC(=O)O[C@@H]1C[C@H]1CCCCCc1c(nc3ccccc3c1OCCCN1CCC(C(F)(F)F)CC1)O2)C(=O)NS(=O)(=O)C1(C)CC1 [Example 167]
[1]
  Ki: 41 nM
[2]; [5]
  Ki: 1.3 nM

## C=C[C@@H]1C[C@]1(NC(=O)[C@@H]1C[C@@H]2CN1C(=O)[C@H](C(C)(C)C)NC(=O)O[C@@H]1C[C@H]1CCCCCc1c(nc3ccccc3c1OC1CCN(CC(F)(F)F)CC1)O2)C(=O)NS(=O)(=O)C1(C)CC1 [Example 234, (1aR,5S,8S,10R,22aR)-5-tert-butyl-N-[(1R,2S)-2-ethenyl-1-{[(1-methylcyclopropyl)sulfonyl]carbamoyl}cyclopropyl]-3,6-dioxo-17-{[1-(2,2,2-trifluoroethyl)piperidin-4-yl]oxy}-1,1a,3,4,5,6,9,10,18,19,20,21,22,22a-tetradecahydro-8H-7,10-methanocyclopropa[18,19][1,10,3,6]dioxadiazacyclononadecino[11,12-b]quinoline-8-carboxamide]
[1]
  Ki: 29.1 nM
[2]; [3]
  Ki: 0.08 nM
[2]; [4]
  Ki: 1.38 nM

## C=C[C@@H]1C[C@]1(NC(=O)[C@@H]1C[C@@H]2CN1C(=O)[C@H](C1CCCC1)NC(=O)O[C@@H]1CCC[C@H]1CC/C=C/Cc1c(nc3ccccc3c1OCCCCO)O2)C(=O)NS(=O)(=O)C1CC1 [Example 68, (3aR,7S,10S,12R,21E,24aS)-7-cyclopentyl-N-{(1R,2S)-1-[(cyclopropylsulfonyl)carbamoyl]-2-ethenylcyclopropyl}-19-(4-hydroxybutoxy)-5,8-dioxo-1,2,3,3a,5,6,7,8,11,12,20,23,24,24a-tetradecahydro-10H-9,12-methanocyclopenta[18,19][1,10,3,6]dioxadiazacyclononadecino[11,12-b]quinoline-10-carboxamide]
[1]
  Ki: 1.6 nM
[2]; [5]
  Ki: 0.16 nM

## C=C[C@@H]1C[C@]1(NC(=O)[C@@H]1C[C@@H]2CN1C(=O)[C@H](C(C)(C)C)NC(=O)O[C@@H]1C[C@H]1CCCCCc1c(nc3c(F)cccc3c1OCCN1CCOCC1)O2)C(=O)NS(=O)(=O)C1(C)CC1 [Example 126, (1aR,5S,8S,10R,22aR)-5-tert-butyl-N-[(1R,2S)-2-ethenyl-1-{[(1-methylcyclopropyl)sulfonyl]carbamoyl}cyclopropyl]-13-fluoro-17-[2-(morpholin-4-yl)ethoxy]-3,6-dioxo-1,1a,3,4,5,6,9,10,18,19, 20,21,22,22a-tetradecahydro-8H-7,10-methanocyclopropa[18,19][1,10,3,6] dioxadiazacyclononadecino[11,12-b] quinoline-8-carboxamide]
[1]
  Ki: 7.7 nM
[2]; [5]
  Ki: 0.4 nM
